Measured values: PubChem BioAssay (NCI)
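Results reflect a 48-hour exposure of cells in 96-well plates to compound at five concentrations. GI50: concentration for 50% inhibition of growth. The concentration for full growth arrest is given as TGI.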

How the values were obtained:
Assay in all cases: growth of human tumour cells (NCI), 48 h
HS 578T breast = system: HS 578T breast
NCI-H460 lung = system: NCI-H460 lung
HT29 colon = system: HT29 colon
SNB-75 CNS = system: SNB-75 CNS
HOP-62 NSCLC = system: HOP-62 NSCLC
SF-539 CNS = system: SF-539 CNS
SK-OV-3 ovarian = system: SK-OV-3 ovarian
BT-549 breast = system: BT-549 breast
HCC-2998 colon = system: HCC-2998 colon
NCI-H522 lung = system: NCI-H522 lung
SK-MEL-28 melanoma = system: SK-MEL-28 melanoma
IGROV1 ovarian = system: IGROV1 ovarian
UACC-257 melanoma = system: UACC-257 melanoma
M14 melanoma = system: M14 melanoma
UACC-62 melanoma = system: UACC-62 melanoma
MDA-MB-435 = system: MDA-MB-435
SN12C renal = system: SN12C renal
786-0 renal = system: 786-0 renal
MCF7 breast = system: MCF7 breast
LOX IMVI melanoma = system: LOX IMVI melanoma
SW-620 colon = system: SW-620 colon
OVCAR-4 ovarian = system: OVCAR-4 ovarian
UO-31 renal = system: UO-31 renal
MALME-3M melanoma = system: MALME-3M melanoma
CCRF-CEM leukemia = system: CCRF-CEM leukemia
EKVX NSCLC = system: EKVX NSCLC
TK-10 renal = system: TK-10 renal
CAKI-1 renal = system: CAKI-1 renal
HCT-116 colon = system: HCT-116 colon
OVCAR-5 ovarian = system: OVCAR-5 ovarian
NCI-H23 lung = system: NCI-H23 lung
SF-268 CNS = system: SF-268 CNS
SK-MEL-5 melanoma = system: SK-MEL-5 melanoma
SNB-19 CNS = system: SNB-19 CNS
ACHN renal = system: ACHN renal
A549 NSCLC = system: A549 NSCLC
NCI-H226 lung = system: NCI-H226 lung
KM12 colon = system: KM12 colon
OVCAR-3 ovarian = system: OVCAR-3 ovarian
SK-MEL-2 melanoma = system: SK-MEL-2 melanoma
SR leukemia = system: SR leukemia
MOLT-4 leukemia = system: MOLT-4 leukemia
NCI/ADR-RES ovarian = system: NCI/ADR-RES ovarian
U251 CNS = system: U251 CNS
HCT-15 colon = system: HCT-15 colon
RPMI-8226 leukemia = system: RPMI-8226 leukemia
K-562 leukemia = system: K-562 leukemia
COLO 205 colon = system: COLO 205 colon
DU-145 prostate = system: DU-145 prostate
MDA-MB-231 breast = system: MDA-MB-231 breast
RXF 393 renal = system: RXF 393 renal
A498 renal = system: A498 renal
SF-295 CNS = system: SF-295 CNS
PC-3 prostate = system: PC-3 prostate
HOP-92 NSCLC = system: HOP-92 NSCLC
OVCAR-8 ovarian = system: OVCAR-8 ovarian
HL-60(TB) leukemia = system: HL-60(TB) leukemia
T-47D breast = system: T-47D breast

For `OCc1ccc(-c2csc(-c3ccc(CO)o3)c2)o1`, the GI50 (HS 578T breast) was 70.6 µM, the TGI (HS 578T breast) was > 100 µM and the GI50 (NCI-H460 lung) was 9.75 µM. For the same compound, the TGI (NCI-H460 lung) was > 100 µM, the GI50 (HT29 colon) was 36.6 µM and the TGI (HT29 colon) was > 100 µM. For the same compound, the GI50 (SNB-75 CNS) was > 55.3 µM, the TGI (SNB-75 CNS) was > 100 µM and the GI50 (HOP-62 NSCLC) was 27.1 µM. The TGI (HOP-62 NSCLC) was > 100 µM, the GI50 (SF-539 CNS) was 99.7 µM and the TGI (SF-539 CNS) was > 100 µM. The GI50 (SK-OV-3 ovarian) was 26.1 µM, the TGI (SK-OV-3 ovarian) was > 100 µM and the GI50 (BT-549 breast) was 21.4 µM. For the same compound, the TGI (BT-549 breast) was > 80.7 µM, the GI50 (HCC-2998 colon) was 40.4 µM and the TGI (HCC-2998 colon) was > 100 µM. For the same compound, the GI50 (NCI-H522 lung) was 43.6 µM, the TGI (NCI-H522 lung) was > 100 µM and the GI50 (SK-MEL-28 melanoma) was 34.2 µM. For the same compound, the TGI (SK-MEL-28 melanoma) was > 100 µM, the GI50 (IGROV1 ovarian) was 926 nM and the TGI (IGROV1 ovarian) was > 100 µM. For the same compound, the GI50 (UACC-257 melanoma) was 1560 nM, the TGI (UACC-257 melanoma) was 4.75 µM and the GI50 (M14 melanoma) was 30.6 µM. For the same compound, the TGI (M14 melanoma) was > 100 µM, the GI50 (UACC-62 melanoma) was 767 nM and the TGI (UACC-62 melanoma) was 33.7 µM. For the same compound, the GI50 (MDA-MB-435) was 24.1 µM, the TGI (MDA-MB-435) was > 100 µM and the GI50 (SN12C renal) was 88.7 µM. For the same compound, the TGI (SN12C renal) was > 100 µM, the GI50 (786-0 renal) was 69.5 µM and the TGI (786-0 renal) was > 100 µM. For the same compound, the GI50 (MCF7 breast) was 752 nM, the TGI (MCF7 breast) was > 95 µM and the GI50 (LOX IMVI melanoma) was 66.5 µM. For the same compound, the TGI (LOX IMVI melanoma) was > 100 µM, the GI50 (SW-620 colon) was 35.9 µM and the TGI (SW-620 colon) was > 100 µM. For the same compound, the GI50 (OVCAR-4 ovarian) was 6.43 µM, the TGI (OVCAR-4 ovarian) was > 100 µM and the GI50 (UO-31 renal) was 49.7 µM. The TGI (UO-31 renal) was > 100 µM, the GI50 (MALME-3M melanoma) was 35.5 µM and the TGI (MALME-3M melanoma) was > 100 µM. For the same compound, the GI50 (CCRF-CEM leukemia) was 31.1 µM, the TGI (CCRF-CEM leukemia) was > 100 µM and the GI50 (EKVX NSCLC) was 21.3 µM. For the same compound, the TGI (EKVX NSCLC) was > 89.6 µM, the GI50 (TK-10 renal) was 640 nM and the TGI (TK-10 renal) was > 37.1 µM. The GI50 (CAKI-1 renal) was 41.5 µM, the TGI (CAKI-1 renal) was > 100 µM and the GI50 (HCT-116 colon) was 5.71 µM. The TGI (HCT-116 colon) was > 100 µM, the GI50 (OVCAR-5 ovarian) was 199 nM and the TGI (OVCAR-5 ovarian) was 1520 nM. For the same compound, the GI50 (NCI-H23 lung) was 34.9 µM, the TGI (NCI-H23 lung) was > 100 µM and the GI50 (SF-268 CNS) was 71.9 µM. For the same compound, the TGI (SF-268 CNS) was > 100 µM, the GI50 (SK-MEL-5 melanoma) was 17.5 µM and the TGI (SK-MEL-5 melanoma) was 41.5 µM. The GI50 (SNB-19 CNS) was > 76.4 µM, the TGI (SNB-19 CNS) was > 100 µM and the GI50 (ACHN renal) was 43.9 µM. For the same compound, the TGI (ACHN renal) was > 100 µM, the GI50 (A549 NSCLC) was 15.3 µM and the TGI (A549 NSCLC) was 64.9 µM. For the same compound, the GI50 (NCI-H226 lung) was 165 nM, the TGI (NCI-H226 lung) was 454 nM and the GI50 (KM12 colon) was 39.1 µM. For the same compound, the TGI (KM12 colon) was > 100 µM, the GI50 (OVCAR-3 ovarian) was 5.86 µM and the TGI (OVCAR-3 ovarian) was > 100 µM. For the same compound, the GI50 (SK-MEL-2 melanoma) was 40.9 µM, the TGI (SK-MEL-2 melanoma) was > 100 µM and the GI50 (SR leukemia) was 26.8 µM. For the same compound, the TGI (SR leukemia) was > 100 µM, the GI50 (MOLT-4 leukemia) was 20.7 µM and the TGI (MOLT-4 leukemia) was 60.1 µM. The GI50 (NCI/ADR-RES ovarian) was 26.9 µM, the TGI (NCI/ADR-RES ovarian) was > 100 µM and the GI50 (U251 CNS) was 29.7 µM. The TGI (U251 CNS) was > 100 µM, the GI50 (HCT-15 colon) was 32.8 µM and the TGI (HCT-15 colon) was > 100 µM. The GI50 (RPMI-8226 leukemia) was 28.3 µM, the TGI (RPMI-8226 leukemia) was > 100 µM and the GI50 (K-562 leukemia) was 11.6 µM. For the same compound, the TGI (K-562 leukemia) was > 100 µM, the GI50 (COLO 205 colon) was 4.36 µM and the TGI (COLO 205 colon) was > 56 µM. The GI50 (DU-145 prostate) was 37.7 µM, the TGI (DU-145 prostate) was > 100 µM and the GI50 (MDA-MB-231 breast) was 67.2 µM. For the same compound, the TGI (MDA-MB-231 breast) was > 100 µM, the GI50 (RXF 393 renal) was > 79.7 µM and the TGI (RXF 393 renal) was > 100 µM. The GI50 (A498 renal) was 18 nM, the TGI (A498 renal) was 71.9 nM and the GI50 (SF-295 CNS) was 13.9 µM. The TGI (SF-295 CNS) was > 100 µM, the GI50 (PC-3 prostate) was 33.4 µM and the TGI (PC-3 prostate) was > 100 µM. The GI50 (HOP-92 NSCLC) was 20.4 µM, the TGI (HOP-92 NSCLC) was 86.4 µM and the GI50 (OVCAR-8 ovarian) was 31.5 µM. The TGI (OVCAR-8 ovarian) was > 100 µM, the GI50 (HL-60(TB) leukemia) was 22.9 µM and the TGI (HL-60(TB) leukemia) was > 100 µM. It also gave a GI50 (T-47D breast) of 1440 nM and a TGI (T-47D breast) of 40 µM.
